Measurements as given in publication PMC4890880 (ACS infectious diseases, 2016).
Read-outs that look alike come from different tables or passages of the source.

System: HepG2-A16-CD81EGFP cells
Conditions: for IC50: read-out: Tox_IC50, HepG2 cytotoxicity
[1] = sheet 2nd round, maximal inhibition in dose response
[2] = 2nd round, maximal inhibition in dose series

## N#Cc1cccc(-c2ccc3c(c2)[C@H]2[C@H](CCN2S(=O)(=O)c2ccc(F)cc2)[C@@H](CO)N3)c1 [BRD-K73006286-001-01-7]
Sheet 2nd round
  IC50: > 10 µM
[1]
  Tox_max_inhibition (%): 15%

## O=C(C[C@@H]1C[C@@H]2c3cc(NC(=O)c4ccc5c(c4)OCO5)ccc3O[C@@H]2[C@@H](CO)O1)NCc1ccc(Oc2ccccc2)cc1 [BRD-K16956545-001-01-0]
Sheet "2nd round"
  IC50: > 10 µM
  Tox_max_inhibition (%): 5%

## O=C(Nc1ccccc1F)N1CCCCN2[C@H](CO)[C@H](c3ccc(/C=C/c4ccccc4)cc3)[C@H]2C1 [BRD-K88581921-001-01-3]
Sheet 2nd round
  IC50: > 10 µM
[1]
  Tox_max_inhibition (%): 3%

## C[C@H](CO)N1C[C@H](C)[C@H](CN(C)S(=O)(=O)c2ccccc2)OCCCC[C@H](C)Oc2ccc(NC(=O)Nc3ccc4c(c3)OCO4)cc2C1=O [BRD-K43975729-001-01-5]
Sheet "2nd round"
  IC50: > 10 µM
  Tox_max_inhibition (%): 7%

## C[C@@H]1CCCCO[C@H](CN(C)S(=O)(=O)c2ccccc2)[C@@H](C)CN([C@H](C)CO)C(=O)c2cc(NC(=O)Nc3ccc4c(c3)OCO4)ccc2O1 [BRD-K06373569-001-01-1]
Sheet "2nd round"
  IC50: > 10 µM
  Tox_max_inhibition (%): 14%

## Cc1cc(C(=O)Nc2ccc3c(c2)C(=O)N(C)[C@@H]2CC[C@H](CC(=O)NCc4ccc(-c5ccccc5)cc4)O[C@@H]2CO3)no1 [BRD-K35841161-001-02-2]
Sheet 2nd round
  IC50: > 10 µM
[1]
  Tox_max_inhibition (%): 37%

## COc1ccc(-c2ccccc2[C@@H]2[C@@H](C#N)N(C(=O)NC3CCCCC3)[C@H]2CO)cc1 [BRD-K55353065-001-01-2]
[2]
  Tox_max_inhibition (%): 11%
2nd round, unit inferred
  IC50: > 10 µM

## C[C@@H]1CCCCO[C@@H](CN(C)Cc2ccc(Cl)c(Cl)c2)[C@@H](C)CN([C@@H](C)CO)C(=O)c2cc(NS(=O)(=O)c3cccs3)ccc2O1 [BRD-K97609851-001-01-5]
Sheet 2nd round
  IC50: > 10 µM
[1]
  Tox_max_inhibition (%): 39%

## COc1ccc2c3c([nH]c2c1)[C@H](CO)N(C(C)=O)CC31CN(Cc2ccccc2Cl)C1 [BRD-K02242562-001-01-9]
Sheet 2nd round
  IC50: > 10 µM
[1]
  Tox_max_inhibition (%): 3.51%

## CN1C(=O)c2cc(NC(=O)c3ccc(C(F)(F)F)cc3)ccc2OC[C@H]2O[C@@H](CC(=O)NCc3ccc4c(c3)OCO4)CC[C@H]21 [BRD-K38534329-001-01-1]
Sheet 2nd round
  IC50: 5.49 µM
[1]
  Tox_max_inhibition (%): 57%

## COc1ccc2c3c([nH]c2c1)[C@H](CO)N(C(C)=O)CC31CCN(C(=O)Nc2ccccc2F)CC1 [BRD-K30973842-001-02-5]
Sheet 2nd round
  IC50: > 10 µM
[1]
  Tox_max_inhibition (%): 14%

## COc1ccccc1CN1C[C@@H](C)[C@H](OC)CN(C)C(=O)c2ccc(NC(=O)Nc3ccccc3OC)cc2OC[C@H]1C [BRD-K01898236-001-01-5]
[2]
  Tox_max_inhibition (%): 9%
2nd round, unit inferred
  IC50: > 10 µM

## O=C(Nc1ccc(F)cc1)N1C[C@@H]2[C@H](c3ccccc31)[C@@H](CO)N2Cc1ccccc1Cl [BRD-K95406835-001-01-9]
Sheet 2nd round
  IC50: > 10 µM
[1]
  Tox_max_inhibition (%): 4.68%

## COc1ccccc1C#Cc1ccc([C@H]2[C@@H](C#N)N(C(=O)C3CCCCC3)[C@H]2CO)cc1 [BRD-K87117984-001-01-1]
Sheet 2nd round
  IC50: 9.79 µM
[1]
  Tox_max_inhibition (%): 57%

## CCCC(=O)N1CCC2(CC1)CN(S(=O)(=O)c1ccc(C)cc1)[C@@H](CO)c1[nH]c3cc(OC)ccc3c12 [BRD-K73703617-001-01-9]
[2]
  Tox_max_inhibition (%): 12%
2nd round, unit inferred
  IC50: > 10 µM

## CS(=O)(=O)N1[C@H](C#N)[C@H](c2ccc(C#Cc3cccc(F)c3)cc2)[C@H]1CO [BRD-K05470326-001-01-0]
Sheet "2nd round"
  IC50: > 10 µM
  Tox_max_inhibition (%): 10%

## CCCNC(=O)N1[C@H](C#N)[C@@H](c2ccccc2C2=CCCCC2)[C@@H]1CO [BRD-K70760948-001-01-2]
[2]
  Tox_max_inhibition (%): 10%
2nd round, unit inferred
  IC50: > 10 µM

## COc1ccc(S(=O)(=O)Nc2ccc3c(c2)C(=O)N([C@H](C)CO)C[C@@H](C)[C@H](CN(C)Cc2ccc(C(F)(F)F)cc2)OCCCC[C@@H](C)O3)cc1 [BRD-K02689416-001-01-9]
Sheet 2nd round
  IC50: > 10 µM
[1]
  Tox_max_inhibition (%): 12%

## CCCNC(=O)N1[C@H](C#N)[C@H](c2ccccc2-c2cccc(C)c2)[C@@H]1CO [BRD-K74392214-001-01-7]
Sheet 2nd round
  IC50: > 10 µM
[1]
  Tox_max_inhibition (%): 7.44%

## O=C(Nc1ccccc1F)N1CCCCN2[C@H](C1)[C@@H](c1ccc(/C=C/c3ccccc3)cc1)[C@@H]2CO [BRD-K41442469-001-01-2]
Sheet "2nd round"
  IC50: > 10 µM
  Tox_max_inhibition (%): 8.49%

## N#C[C@H]1[C@@H](c2ccc(-c3cccnc3)cc2)[C@@H](CO)N1C(=O)Nc1ccc(F)cc1 [BRD-K86354270-001-02-2]
Sheet 2nd round
  IC50: > 10 µM
[1]
  Tox_max_inhibition (%): 14%

## COc1ccc(C#Cc2ccc3c(c2)O[C@@H](CN(C)C(=O)Nc2cccc(OC)c2)[C@@H](C)CN([C@H](C)CO)S3(=O)=O)cc1 [BRD-K04089243-001-01-9]
Sheet 2nd round
  IC50: > 10 µM
[1]
  Tox_max_inhibition (%): 2.28%

## O=C(C[C@H]1C[C@@H]2c3cc(NC(=O)c4ccc5c(c4)OCO5)ccc3O[C@@H]2[C@@H](CO)O1)NCc1ccc(Oc2ccccc2)cc1 [BRD-K34781184-001-01-6]
Sheet 2nd round
  IC50: > 10 µM
[1]
  Tox_max_inhibition (%): 49%

## N#C[C@H]1[C@@H](c2ccc(C3=CCCCC3)cc2)[C@@H](CO)N1C(=O)Nc1ccccc1F [BRD-K81680265-001-01-4]
[2]
  Tox_max_inhibition (%): 11%
2nd round, unit inferred
  IC50: > 10 µM

## C[C@@H]1CN([C@@H](C)CO)C(=O)c2cccc(NC(=O)c3cnccn3)c2O[C@@H]1CN(C)Cc1ccc(-c2ccccc2)cc1 [BRD-K92545585-001-01-9]
Sheet 2nd round
  IC50: > 10 µM
[1]
  Tox_max_inhibition (%): 4.65%

## CCCNC(=O)N1[C@H](C#N)[C@H](c2ccccc2C2=CCCCC2)[C@@H]1CO [BRD-K29207675-001-01-5]
[2]
  Tox_max_inhibition (%): 12%
2nd round, unit inferred
  IC50: > 10 µM

## COc1ccc2c3c(n(C)c2c1)[C@@H](CO)N(Cc1ccc2c(c1)OCO2)CC31CN(C(=O)c2ccc3c(c2)OCO3)C1 [BRD-K07064121-001-01-6]
Sheet "2nd round"
  IC50: > 10 µM
  Tox_max_inhibition (%): 18%

## COc1ccc(C#Cc2ccc3c(c2)O[C@@H](CN(C)C(=O)Nc2cccc(OC)c2)[C@@H](C)CN([C@@H](C)CO)S3(=O)=O)cc1 [BRD-K52609475-001-01-4]
[2]
  Tox_max_inhibition (%): 6%
2nd round, unit inferred
  IC50: > 10 µM

## CN1C(=O)c2cc(NC(=O)c3cccc(F)c3)ccc2OC[C@H]2O[C@H](CC(=O)NCC3CCCCC3)CC[C@H]21 [BRD-K31618614-001-02-1]
Sheet "2nd round"
  IC50: > 10 µM
  Tox_max_inhibition (%): 27%

## C[C@@H]1CCCCO[C@@H](CN(C)C(=O)Nc2cccc3ccccc23)[C@H](C)CN([C@H](C)CO)C(=O)c2cc(NC(=O)CCC(F)(F)F)ccc2O1 [BRD-K78692607-001-01-1]
Sheet 2nd round
  IC50: > 10 µM
[1]
  Tox_max_inhibition (%): 10%

## COc1ccccc1S(=O)(=O)N(C)C[C@@H]1Oc2cc(/C=C/c3ccccc3)ccc2S(=O)(=O)N([C@H](C)CO)C[C@H]1C [BRD-K26611181-001-01-8]
Sheet 2nd round
  IC50: > 10 µM
[1]
  Tox_max_inhibition (%): 33%

## Cc1ccc(S(=O)(=O)N(C)C[C@H]2Oc3cc(C#CC4CCCC4)ccc3S(=O)(=O)N([C@@H](C)CO)C[C@H]2C)cc1 [BRD-K99467823-001-01-1]
Sheet 2nd round
  IC50: > 10 µM
[1]
  Tox_max_inhibition (%): 31%

## O=C(C[C@@H]1C[C@H]2c3cc(NC(=O)c4ccc5c(c4)OCO5)ccc3O[C@H]2[C@H](CO)O1)NCc1ccc(Oc2ccccc2)cc1 [BRD-K60334624-001-01-9]
Sheet 2nd round
  IC50: > 10 µM
[1]
  Tox_max_inhibition (%): 4.54%

## N#C[C@H]1N[C@H](CO)[C@H]1c1ccc(C#Cc2ccccc2F)cc1 [BRD-K80648041-001-01-3]
Sheet 2nd round
  IC50: > 10 µM
[1]
  Tox_max_inhibition (%): 11%

## COc1ccccc1C#Cc1ccc([C@H]2[C@@H](C#N)N(C(=O)C3CCCC3)[C@H]2CO)cc1 [BRD-K71730412-001-01-1]
Sheet 2nd round
  IC50: > 10 µM
[1]
  Tox_max_inhibition (%): 13%

## Cc1ccccc1-c1ccc2c(c1)O[C@H](CN(C)C(=O)Nc1ccc(C(F)(F)F)cc1)[C@@H](C)CN([C@@H](C)CO)S2(=O)=O [BRD-K68538844-001-01-1]
Sheet 2nd round
  IC50: > 10 µM
[1]
  Tox_max_inhibition (%): 35%

## O=C(C[C@H]1C[C@@H]2c3cc(NS(=O)(=O)c4ccc(F)cc4)ccc3O[C@@H]2[C@@H](CO)O1)N1CCc2ccccc2C1 [BRD-K45723650-001-01-0]
Sheet "2nd round"
  IC50: > 10 µM
  Tox_max_inhibition (%): -1%

## Cc1ccc(S(=O)(=O)N(C)C[C@@H]2Oc3cc(C#CC4CCCC4)ccc3S(=O)(=O)N([C@@H](C)CO)C[C@H]2C)cc1 [BRD-K40215908-001-01-2]
[2]
  Tox_max_inhibition (%): 34%
2nd round, unit inferred
  IC50: > 10 µM

## CO[C@@H]1CN(C)C(=O)c2ccc(NC(=O)Nc3ccccc3F)cc2OC[C@@H](C)N(CC2CC2)C[C@H]1C [BRD-K88085458-001-01-6]
Sheet "2nd round"
  IC50: > 10 µM
  Tox_max_inhibition (%): 6%

## CC(C)NC(=O)N1[C@H](C#N)[C@H](c2ccc(C#CC3CCCCC3)cc2)[C@@H]1CO [BRD-K48864121-001-01-0]
[2]
  Tox_max_inhibition (%): 54%
2nd round, unit inferred
  IC50: 9.68 µM

## O=C(Nc1cc(F)ccc1F)N1CCCCN2[C@H](CO)[C@H](c3ccc(C4=CCCCC4)cc3)[C@@H]2C1 [BRD-K26542939-001-01-0]
Sheet 2nd round
  IC50: > 10 µM
[1]
  Tox_max_inhibition (%): 16%

## COc1ccccc1NC(=O)N1C[C@@H]2N[C@H](C1)C2c1ccc(/C=C/c2ccccc2)cc1 (stereo partly drawn) [BRD-K16425675-019-01-0]
Sheet 2nd round
  IC50: > 10 µM
[1]
  Tox_max_inhibition (%): 9%
